Source: patent US5401875A, “2-aminocarboxylic acids and their derivatives, processes for their preparation and their use as medicaments” (Godecke Aktiengesellschaft, priority 1988, dated 1995)
Structures can show the parent of a compound that is named as a salt.

Columns and labels:
protein kinase C = experiment: C-kinase: inhibition of protein kinase C, incorporation of phosphorus-32 labelled phosphate in histone; format: biochemical, rat brain or chicken stomach smooth muscle; details: pH 7.5; 10 μM ATP; 5 nM PKC; 5 min at 30° C.
Description: The enzyme is purified from rat brain or smooth muscle (chicken stomach). Its activity is determined via the incorporation of phosphorus-32 labelled phosphate in histone. The reaction batch of 200 μL contains the following components: 50 mM HEPES-NaOH, pH 7.5, 5 mM MgCl2, 1 mM DTT, 4 μM free Ca^2+, 10 μM ATP, 1 μg phosphatidylserine, 0.2 μg 1,2-diolein, as well as 40 μg histone H-1. The batch is preincubated for 4 minutes at 30° C. and the reaction then started by addition of 5 nM PKC. After 5 minutes incubation at 30° C. the reaction is stopped with 10% TCA and the samples then filtered off. The phosphate incorporation is determined by means of Cerenkov counting in a scintillation counter.

[1] = molecular target: T1, cycloAMP-dependent kinase (Homo sapiens, UniProt P17612); experiment: A-kinase: inhibition of cyclic AMP-dependent kinase (commercially available catalytic subunit), phosphorus-32 incorporation into histone; format: biochemical; details: pH 7.5; 40 μM ATP; histone-H-2B; read-out: Inhibition of cAMP-kinase, IC50-values
T1 construct: purchased
Description: The measurement of the activity takes place with the commercially available catalytic subunit of the enzyme. The incorporation of phosphorus-32 labelled phosphate into histone is thereby measured. The reaction batch of 200 μL contains the following components: 50 mM PIPES-NaOH, pH 7.5, 10 mM MgCl2, 1 mM DTT, 40 μM ATP, as well as 50 μg histone-H-2B. The carrying out of the test takes place as in the case of C-kinase.

[2] = molecular target: T2, cycloGMP-dependent kinase (Bos taurus, UniProt P00516); experiment: G-kinase: inhibition of cyclic GMP-dependent kinase, phosphorus-32 incorporation into histone; format: biochemical, bovine; details: pH 7.4; 10 μM ATP; 10 μM cGMP; 2.5 nM G-kinase
T2 construct: The enzyme was purified from bovine lung; from tissue; host or cells: bovine lung
T2 sequence (P00516 1-671): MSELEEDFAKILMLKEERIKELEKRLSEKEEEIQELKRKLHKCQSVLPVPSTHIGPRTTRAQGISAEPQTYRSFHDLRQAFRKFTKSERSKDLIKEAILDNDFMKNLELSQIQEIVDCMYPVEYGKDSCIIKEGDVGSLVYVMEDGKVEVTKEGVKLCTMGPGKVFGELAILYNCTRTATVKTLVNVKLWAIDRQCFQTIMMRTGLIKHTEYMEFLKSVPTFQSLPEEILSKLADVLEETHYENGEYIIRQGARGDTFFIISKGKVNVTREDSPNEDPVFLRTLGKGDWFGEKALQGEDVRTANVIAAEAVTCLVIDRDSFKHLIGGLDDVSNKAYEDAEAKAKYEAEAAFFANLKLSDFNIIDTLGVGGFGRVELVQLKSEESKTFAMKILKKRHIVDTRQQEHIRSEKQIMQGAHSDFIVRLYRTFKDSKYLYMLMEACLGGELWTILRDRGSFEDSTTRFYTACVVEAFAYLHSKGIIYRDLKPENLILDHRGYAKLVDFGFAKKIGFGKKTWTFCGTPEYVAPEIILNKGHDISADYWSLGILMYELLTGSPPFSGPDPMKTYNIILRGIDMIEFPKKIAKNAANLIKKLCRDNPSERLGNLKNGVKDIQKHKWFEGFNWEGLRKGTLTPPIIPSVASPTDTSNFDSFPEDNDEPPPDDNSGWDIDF
Description: The enzyme was purified from bovine lung and its activity determined via the incorporation of phosphorus 32-labelled phosphate into histone. In the test batch are contained the following components: 20 mM Tris-HCl, pH 7.4, 5 mM MgCl2, 1 mM DTT, 10 μM ATP, 10 μM cGMP, 40 μg BSA, 2% glycerol, as well as 10 μg histone II-A. The starting of the reaction takes place by addition of 2.5 nM G-kinase. Otherwise, the carrying out of the test takes place as in the case of C-kinase.

[3] = molecular target: T3, myosine light chain kinase (Gallus gallus, UniProt P11799); experiment: MLC-kinase: inhibition of myosine light chain kinase, phosphorus-32 incorporation into MLC; format: biochemical, chicken; details: pH 7.2; 250 μM ATP; 25 μM MLC; about 1 nM MLC kinase
T3 construct: Not only the enzyme but also the substrate (MLC) are purified from chicken stomach; from tissue; host or cells: chicken stomach
T3 sequence (P11799 935-1906 limits assumed): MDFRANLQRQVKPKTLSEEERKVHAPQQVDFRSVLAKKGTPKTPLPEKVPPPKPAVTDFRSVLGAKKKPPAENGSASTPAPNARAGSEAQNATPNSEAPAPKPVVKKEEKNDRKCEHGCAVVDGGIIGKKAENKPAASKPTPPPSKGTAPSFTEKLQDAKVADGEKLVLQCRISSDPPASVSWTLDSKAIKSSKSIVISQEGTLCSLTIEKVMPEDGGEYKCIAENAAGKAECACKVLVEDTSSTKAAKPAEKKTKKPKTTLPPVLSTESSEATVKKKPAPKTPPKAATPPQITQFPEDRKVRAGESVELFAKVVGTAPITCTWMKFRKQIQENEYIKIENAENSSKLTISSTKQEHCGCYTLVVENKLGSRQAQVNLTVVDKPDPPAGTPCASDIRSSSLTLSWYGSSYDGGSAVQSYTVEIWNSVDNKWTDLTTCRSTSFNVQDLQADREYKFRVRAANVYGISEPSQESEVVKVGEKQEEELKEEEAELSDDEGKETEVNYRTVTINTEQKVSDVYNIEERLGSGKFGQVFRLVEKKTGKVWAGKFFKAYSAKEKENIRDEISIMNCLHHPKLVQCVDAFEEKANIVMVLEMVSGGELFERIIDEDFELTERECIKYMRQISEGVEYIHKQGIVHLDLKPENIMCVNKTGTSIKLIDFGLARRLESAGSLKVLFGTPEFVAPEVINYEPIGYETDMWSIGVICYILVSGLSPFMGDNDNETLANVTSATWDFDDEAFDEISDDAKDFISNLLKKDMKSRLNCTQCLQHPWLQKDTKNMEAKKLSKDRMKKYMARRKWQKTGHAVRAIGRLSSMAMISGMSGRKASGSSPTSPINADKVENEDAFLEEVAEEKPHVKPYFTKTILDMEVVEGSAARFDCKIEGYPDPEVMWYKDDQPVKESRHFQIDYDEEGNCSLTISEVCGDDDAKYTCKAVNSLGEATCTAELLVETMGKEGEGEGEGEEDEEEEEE
Description: Not only the enzyme but also the substrate (MLC) are purified from chicken stomach. The activity measurement also takes place via the incorporation of phosphorus-32 labelled phosphate. The reaction batch of 200 μL contains the following components: 50 mM MOPS-NaOH, pH 7.2, 5 mM MgCl2, 100 μM CaCl2, 100 nM calmodulin, 1 mM DTT, 250 μM ATP, as well as 25 μM MLC. The reaction is started by addition of about 1 nM MLC kinase; otherwise, the carrying out of the test takes place as in the case of C-kinase.

Row | IC50 (protein kinase C) | IC50 [1] | IC50 [2] | IC50 [3] | SMILES
1 | 5 µM | > 100 µM | > 100 µM | > 100 µM | CCCCCCCCCCCCCCCCCCOCC(CN(C)C)OC(C)=O (racemic) [A, (±)1-dimethylamino-3-octadecyloxy-2-propyl acetate hydrochloride]
2 | 2.5 µM | > 100 µM | > 100 µM | > 100 µM | CCCCCCCCCCCCCCCCCCOCC(O)CN(C)C(CO)C(=O)O (stereo not drawn) [Example 1, 2-[N-Methyl-N-(3-octadecyloxy-2-hydroxypropyl)]-amino-3-hydroxypropionic acid hydrochloride]

Row | SMILES | IC50 (protein kinase C) | IC50 [1] | IC50 [2] | IC50 [3]
3 | CCCCCCCCCCOCC(CN1CCC(CN)(c2ccccc2)CC1)OCCCCCCCCCC (stereo not drawn) [B] | 7 µM | 29 µM | 28 µM | 5.1 µM
